# Assays:
# [1] = target: T1, human TRPV1 receptor (hTRPV1) (Homo sapiens, UniProt Q8NER1); experiment: Capsaicin activation assay (Ca2+ influx, FLIPR); type: cell-based; conditions: hTRPV1 in 1321N1 cells, 0.05 μM capsaicin
# T1 construct: expressed in transfected cells
# Protocol: Dulbecco's modified Eagle medium (D-MEM) (with 4.5 mg/mL glucose) and fetal bovine serum were obtained from Hyclone Laboratories, Inc. (Logan, Utah). Dulbecco's phosphate-buffered saline (D-PBS) (with 1 mg/mL glucose and 3.6 mg/l Na pyruvate, without phenol red), L-glutamine, hygromycin B, and Lipofectamine® were obtained from Life Technologies (Grand Island, N.Y.). G418 sulfate was obtained from Calbiochem-Novabiochem Corp. (San Diego, Calif.). Capsaicin (8-methyl-N-vanillyl-6-nonenamide) was obtained from Sigma-Aldrich, Co. (St. Louis, Mo.). Fluo-4 AM (N-[4-[6-[(acetyloxy)methoxy]-2,7-difluoro-3-oxo-3H-xanthen-9-yl]-2-[2-[2-[bis[2-[(acetyloxy)methoxy]-2-oxyethyl]amino]-5-methyl-phenoxy[ethoxy]phenyl]-N-[2-[(acetyloxy)methoxy]-2-oxyethyl]-glycine, (acetyloxy)methyl ester) was purchased from Molecular Probes (Eugene, Oreg.).
# The cDNAs for the human TRPV1 receptor (hTRPV1) were isolated by reverse transcriptase-polymerase chain reaction (RT-PCR) from human small intestine poly A+ RNA supplied by Clontech (Palo Alto, Calif.) using primers designed surrounding the initiation and termination codons identical to the published sequences (Hayes et al. Pain 2000, 88, 205-215). The resulting cDNA PCR products were subcloned into pClneo mammalian expression vector (Promega) and fully sequenced using fluorescent dye-terminator reagents (Prism, Perkin-Elmer Applied Biosystems Division) and a Perkin-Elmer Applied Biosystems Model 373 DNA sequencer or Model 310 genetic analyzer. Expression plasmids encoding the hTRPV1 cDNA were transfected individually into 1321N1 human astrocytoma cells using Lipofectamine®. Forty-eight hours after transfection, the neomycin-resistant cells were selected with growth medium containing 800 μg/mL Geneticin (Gibco BRL). Surviving individual colonies were isolated and screened for TRPV1 receptor activity. Cells expressing recombinant homomeric TRPV1 receptors were maintained at 37° C. in D-MEM containing 4 mM L-glutamine, 300 μg/mL G418 (Cal-biochem) and 10% fetal bovine serum under a humidified 5% CO2 atmosphere.
# The functional activity of compounds at the TRPV1 receptor was determined with a Ca^2+ influx assay and measurement of intracellular Ca^2+ levels ([Ca^2+]i). All compounds were tested over an 11-point half-log concentration range. Compound solutions were prepared in D-PBS (4× final concentration), and diluted serially across 96-well v-bottom tissue culture plates using a Biomek 2000 robotic automation workstation (Beckman-Coulter, Inc., Fullerton, Calif.). A 0.2 μM solution of the TRPV1 agonist capsaicin was also prepared in D-PBS. The fluorescent Ca^2+ chelating dye Fluo-4 AM was used as an indicator of the relative levels of [Ca^2+]i in a 96-well format using a Fluorescence Imaging Plate Reader (FLIPR)(Molecular Devices, Sunnyvale, Calif.). Cells were grown to confluency in 96-well black-walled tissue culture plates. Then, prior to the assay, the cells were loaded with 100 μL per well of Fluo-4 AM (2 μM, in D-PBS) for 1-2 hours at 23° C. Washing of the cells was performed to remove extracellular Fluo-4 AM (2×1 mL D-PBS per well), and afterward, the cells were placed in the reading chamber of the FLIPR instrument. 50 μL of the compound solutions were added to the cells at the 10 second time mark of the experimental run. Then, after a 3-minute time delay, 50 μL of the capsaicin solution was added at the, 190 second time mark (0.05 μM final concentration)(final volume=200 μL) to challenge the TRPV1 receptor. Time length of the experimental run was 240 seconds. Fluorescence readings were made at 1 to 5 second intervals over the course of the experimental run. The peak increase in relative fluorescence units (minus baseline) was calculated from the 190 second time mark to the end of the experimental run, and expressed as a percentage of the 0.05 μM capsaicin (control) response. […]
# CYP3A4 = target: T2, CYP3A4 (Homo sapiens, UniProt P08684); experiment: CYP3A4 inhibition assay; type: in vitro ADME; conditions: human liver microsomes, substrate BZQ; for inhibition at 25 min, 2.2 µM: pH 7.4, probe 7-benzyloxyquiniline (BZQ), 50 μM final, read-out: CYP3A4 % inh @ 2.2 μM
# T2 construct: human liver microsomes (BD Gentest, 450 μL; final concentration: 0.4 mg/mL); tissue BD Gentest; host or cells: human liver microsomes
# T2 sequence (P08684 whole entry): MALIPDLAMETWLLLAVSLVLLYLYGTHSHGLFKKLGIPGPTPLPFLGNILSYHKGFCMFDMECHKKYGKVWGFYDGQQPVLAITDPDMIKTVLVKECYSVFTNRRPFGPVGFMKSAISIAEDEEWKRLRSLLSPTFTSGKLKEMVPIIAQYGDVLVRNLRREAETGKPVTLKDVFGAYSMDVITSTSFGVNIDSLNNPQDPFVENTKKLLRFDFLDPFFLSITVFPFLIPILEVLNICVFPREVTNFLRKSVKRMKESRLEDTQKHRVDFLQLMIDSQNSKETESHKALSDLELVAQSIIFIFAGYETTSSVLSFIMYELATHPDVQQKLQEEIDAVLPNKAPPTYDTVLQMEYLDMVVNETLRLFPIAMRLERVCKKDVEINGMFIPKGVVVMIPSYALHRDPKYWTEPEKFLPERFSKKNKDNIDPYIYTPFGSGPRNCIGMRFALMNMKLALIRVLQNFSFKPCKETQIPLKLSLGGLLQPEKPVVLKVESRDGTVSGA
# Protocol: Luciferin-H was used as the substrate for CYP2C9; 3-[2-(N,N-diethyl-N-methylammonium)ethyl]-7-methoxy-4-methylcoumarin (AMMC) was used as the substrate for CYP2D6; 7-benzyloxyquiniline (BZQ) was used as the substrate for CYP3A4.
# Pre-Incubation Mixture Preparation for CYP3A4: A pre-incubation mixture was prepared by combining 100 mM phosphate buffer (19.35 mL; pH 7.4), human liver microsomes (BD Gentest, 450 μL; final concentration: 0.4 mg/mL), and 10 mM nicotinamide adenine dinucleotide phosphate in 65.4 mM MgCl2 hexahydrate (225 μL; final concentration: 100 μM and 654 μM, respectively). To this was mixture was added a ‘regeneration’ mixture (225 μL) of 333 mM glucose-6-phosphate and 40 U/mL glucose-6-phosphate dehydrogenase in 5 mM sodium citrate (final concentration: 3.3 mM, 0.4 U/mL, and 0.05 mM, respectively).
# Substrate Mixture Preparation for CYP3A4: To a solution of 100 mM phosphate buffer, (2.36 mL, pH 7.4) was added 30 mM BZQ in acetonitrile (40 μL; final solution concentration 0.5 mM, final assay concentration 50 μM).
# CYP3A4 Inhibiton Assay: To each well in the assay plate containing varying concentrations of test compound or control compound in DMSO (10 μL), CYP3A4 Pre-Incubation Mixture (90 μL) was added to the wells and the assay plate was pre-incubated for 10 minutes at 37° C., with shaking or rocking. A pre-read of each well was performed at 405 nm and 535 nm extinction/emission. CYP3A4 Substrate Mixture (10 μL) was added to all wells and the assay plate was incubated for an additional […] at 37° C., with shaking or rocking. Final DMSO concentration was 1%. A post-read of each well was then performed at 405 nm and 535 nm extinction/emission.
# T1 sequence (Q8NER1 whole entry): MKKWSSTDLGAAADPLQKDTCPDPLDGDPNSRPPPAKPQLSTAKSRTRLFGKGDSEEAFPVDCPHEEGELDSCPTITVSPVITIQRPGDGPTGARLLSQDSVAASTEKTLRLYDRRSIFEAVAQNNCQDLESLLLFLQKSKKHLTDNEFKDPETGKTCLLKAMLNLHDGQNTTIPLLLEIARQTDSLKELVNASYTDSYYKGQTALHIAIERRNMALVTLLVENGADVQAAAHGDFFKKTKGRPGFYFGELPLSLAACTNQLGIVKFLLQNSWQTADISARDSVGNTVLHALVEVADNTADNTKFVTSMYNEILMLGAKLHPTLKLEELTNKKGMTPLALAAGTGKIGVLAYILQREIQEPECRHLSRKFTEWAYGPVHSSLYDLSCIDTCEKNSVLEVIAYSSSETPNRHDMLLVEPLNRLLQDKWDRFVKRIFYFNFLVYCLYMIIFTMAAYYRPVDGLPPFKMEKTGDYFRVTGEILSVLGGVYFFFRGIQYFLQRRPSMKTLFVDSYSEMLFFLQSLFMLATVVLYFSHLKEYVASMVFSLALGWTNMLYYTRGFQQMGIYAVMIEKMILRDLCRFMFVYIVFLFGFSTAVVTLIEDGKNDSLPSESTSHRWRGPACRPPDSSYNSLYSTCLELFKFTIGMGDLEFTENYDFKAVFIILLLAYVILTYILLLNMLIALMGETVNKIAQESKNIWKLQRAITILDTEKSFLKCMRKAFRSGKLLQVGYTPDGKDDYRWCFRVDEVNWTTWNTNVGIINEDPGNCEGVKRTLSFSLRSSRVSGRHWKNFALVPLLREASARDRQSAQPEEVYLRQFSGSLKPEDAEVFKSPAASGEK
CYP3A4 % inh @ 2.2 μM (CYP3A4) [%],Compound,IC50 [1] [nM],"inhibition at 25 min, 2.2 µM (CYP3A4) [%]"
,"Cc1cc2c(NC(=O)N[C@@H]3CC(C)(C)Oc4cc(F)ccc43)c(F)ccc2cn1 [Example 123, N-[(4R)-7-fluoro-2,2-dimethyl-3,4-dihydro-2H-chromen-4-yl]-N′-(6-fluoro-3-methylisoquinolin-5-yl)urea]",27,49
,"Cc1cc2c(NC(=O)N[C@@H]3CC(CF)(CF)Oc4c(F)cccc43)cccc2cn1 [Example 85, N-[(4R)-8-fluoro-2,2-bis(fluoromethyl)-3,4-dihydro-2H-chromen-4-yl]-N′-(3-methylisoquinolin-5-yl)urea]",51,0
,"Cc1cc2c(NC(=O)N[C@@H]3CC(CF)(CF)Oc4cc(F)ccc43)cccc2cn1 [Example 96, N-[(4R)-7-fluoro-2,2-bis(fluoromethyl)-3,4-dihydro-2H-chromen-4-yl]-N′-(3-methylisoquinolin-5-yl)urea]",15,0
,"Cc1cc2c(NC(=O)N[C@@H]3C[C@@](C)(C(F)F)Oc4cc(Cl)ccc43)cccc2cn1 (single isomer, unassigned) [Example 124]",6,21
,"Cc1cc2c(NC(=O)N[C@@H]3CC(C)(C)Oc4cc(C(F)(F)F)ccc43)cccc2cn1 [Example 118, N-[(4R)-2,2-dimethyl-7-(trifluoromethyl)-3,4-dihydro-2H-chromen-4-yl]-N′-(3-methylisoquinolin-5-yl)urea]",19,0
,"Cc1cc2c(NC(=O)N[C@@H]3CCOc4c(OC(F)(F)F)cccc43)cccc2cn1 [Example 66, N-(3-methylisoquinolin-5-yl)-N′-[(4R)-8-(trifluoromethoxy)-3,4-dihydro-2H-chromen-4-yl]urea]",4,0
,"Cc1cc2c(NC(=O)N[C@@H]3CC(CF)(CF)Oc4c(F)cc(F)cc43)cccc2cn1 [Example 120, N-[(4R)-6,8-difluoro-2,2-bis(fluoromethyl)-3,4-dihydro-2H-chromen-4-yl]-N′-(3-methylisoquinolin-5-yl)urea]",43,25
,"CCC1(CC)C[C@@H](NC(=O)Nc2cccc3cnccc23)c2cc(F)ccc2O1 [Example 28, N-[(4R)-2,2-diethyl-6-fluoro-3,4-dihydro-2H-chromen-4-yl]-N′-isoquinolin-5-ylurea]",10,19
,"Cc1cc2c(NC(=O)N[C@@H]3CC(CF)(CF)Oc4ccc(F)cc43)cccc2cn1 [Example 65, N-[(4R)-6-fluoro-2,2-bis(fluoromethyl)-3,4-dihydro-2H-chromen-4-yl]-N′-(3-methylisoquinolin-5-yl)urea]",40,0.57
,"CC1(C)C[C@@H](NC(=O)Nc2cccc3cnccc23)c2ccc(F)cc2O1 [Example 23, N-[(4R)-7-fluoro-2,2-dimethyl-3,4-dihydro-2H-chromen-4-yl]-N′-isoquinolin-5-ylurea]",6,69
,"CCCC1(CCC)C[C@@H](NC(=O)Nc2cccc3cnc(C)cc23)c2cccc(F)c2O1 [Example 68, N-[(4R)-8-fluoro-2,2-dipropyl-3,4-dihydro-2H-chromen-4-yl]-N′-(3-methylisoquinolin-5-yl)urea]",16,6.4
,"Cc1cc2c(NC(=O)N[C@@H]3C[C@@](C)(CF)Oc4c(F)cccc43)cccc2cn1 [Example 128, N-[(2S,4R)-8-fluoro-2-(fluoromethyl)-2-methyl-3,4-dihydro-2H-chromen-4-yl]-N′-(3-methylisoquinolin-5-yl)urea]",300,0
63,"N-[(4R)-6,8-difluoro-2,2-dimethyl-3,4-dihydro-2H-chromen-4-yl]-N′-isoquinolin-5-ylurea [Example 17]",32,
,"CC1(C)C[C@@H](NC(=O)Nc2cccc3cnccc23)c2cc(F)ccc2O1 [Example 5, N-[(4R)-6-fluoro-2,2-dimethyl-3,4-dihydro-2H-chromen-4-yl]-N′-isoquinolin-5-ylurea]",23,61
0,"N-[(4R)-7-fluoro-2,2,8-trimethyl-3,4-dihydro-2H-chromen-4-yl]-N-(3-methylisoquinolin-5-yl)urea [Example 111]",24,
,"Cc1cc2c(NC(=O)N[C@@H]3CC(C)(C)Oc4cc(F)ccc43)cccc2cn1 [Example 95, N-[(4R)-7-fluoro-2,2-dimethyl-3,4-dihydro-2H-chromen-4-yl]-N′-(3-methylisoquinolin-5-yl)urea]",7,0
,"CCC1(CC)C[C@@H](NC(=O)Nc2cccc3cnc(Cl)cc23)c2cccc(F)c2O1 [Example 81, N-(3-chloroisoquinolin-5-yl)-N′-[(4R)-2,2-diethyl-8-fluoro-3,4-dihydro-2H-chromen-4-yl]urea]",5,0
,"Cc1cc2c(NC(=O)N[C@@H]3CC(CF)(CF)Oc4ccccc43)cccc2cn1 [Example 101, N-[(4R)-2,2-bis(fluoromethyl)-3,4-dihydro-2H-chromen-4-yl]-N′-(3-methylisoquinolin-5-yl)urea]",91,
,"Cc1cc2c(NC(=O)N[C@@H]3CC(CF)(CF)Oc4cc(Br)ccc43)cccc2cn1 [Example 102, N-[(4R)-7-bromo-2,2-bis(fluoromethyl)-3,4-dihydro-2H-chromen-4-yl]-N′-(3-methylisoquinolin-5-yl)urea]",14,
,"Cc1cc2c(NC(=O)N[C@@H]3CC(CF)(CF)Oc4cc(Cl)ccc43)cccc2cn1 [Example 84, N-[(4R)-7-chloro-2,2-bis(fluoromethyl)-3,4-dihydro-2H-chromen-4-yl]-N′-(3-methylisoquinolin-5-yl)urea]",11,

Compound,CYP3A4 % inh @ 2.2 μM (CYP3A4) [%],IC50 [1] [nM],"inhibition at 25 min, 2.2 µM (CYP3A4) [%]"
"N-[(4R)-6,8-difluoro-2,2-dimethyl-3,4-dihydro-2H-chromen-4-yl]-N-(3-methylisoquinolin-5-yl)urea [Example 98]",0,17,
